Data taken from ChEMBL document CHEMBL5375954, “Discovery and Evaluation of C6-Substituted Pyrazolopyrimidine-Based Bisphosphonate Inhibitors of the Human Geranylgeranyl Pyrophosphate Synthase and Evaluation of Their Antitumor Efficacy in Multiple Myeloma, Pancreatic Ductal Adenocarcinoma, and Colorectal Cancer” (J Med Chem, 2023).
pEC50, pIC50: −log10 of the molar value. The source made the active and inactive calls. No cut-off for these calls is given here.

Experiments:
[1] = Cytotoxicity against Normal human bronchial epithelial cells assessed as inhibition of cell growth at 10 uM incubated for 72 hrs by MTS assay relative to control; format: toxicity, cell-based
[2] = system: HCT-116; test: Induction of apoptosis in human HCT-116 cells assessed as late apoptotic cells at 1 uM incubated for 72 hrs by APC-Annexin-V/7-AAD staining based flow cytometry (reference value: 0%); format: functional
[3] = Cytotoxicity against human IMR-90 cells assessed as inhibition of cell growth at 360 nM incubated for 72 hrs by MTS assay relative to control; format: toxicity, cell-based
[4] = system: HCT-116; test: Induction of apoptosis in human HCT-116 cells assessed as live cells at 1 uM incubated for 72 hrs by APC-Annexin-V/7-AAD staining based flow cytometry (reference value: 95.3%); format: functional
[5] = system: MIA PaCa-2; test: Induction of apoptosis in human MIA PaCa-2 cells assessed as necrotic cells at 1 uM incubated for 72 hrs by APC-Annexin-V/7-AAD staining based flow cytometry (reference value: 0.75%); format: functional
[6] = Metabolic stability in CD-1 mouse liver microsomes assessed as compound remaining incubated for 45 mins in presence of NADPH by LC-MS/MS analysis; format: ADME, Microsome; settings: 0.75 h
[7] = system: MIA PaCa-2; test: cells; settings: Homo sapiens, MIA PaCa-2, 72 h
[8] = Toxicity in NSG mouse xenografted with human MIA PaCa-2 cells assessed as body weight gain at 3 mg/kg, ip administered 3 times a week for 26 days and measured daily; format: organism-based; settings: in vivo, time 26 day
[9] = Hepatotoxicity in male NSG mouse xenografted with human RPMI-8226 cells assessed as single-cell necrosis at 3 mg/kg, ip administered 3 times a week for 26 days and measured 48 hrs post last dose by H and E staining based assay; format: toxicity, organism-based; settings: in vivo, 672 h, time 28 day
[10] = Hepatotoxicity in female NSG mouse xenografted with human RPMI-8226 cells assessed as eosinophilic degeneration at 3 mg/kg, ip administered 3 times a week for 26 days and measured 48 hrs post last dose by H and E staining based assay; format: toxicity, organism-based; settings: in vivo, 672 h, time 28 day
[11] = Hepatotoxicity in male NSG mouse xenografted with human RPMI-8226 cells assessed as foci of bile ductular/oval cell proliferation at 3 mg/kg, ip administered 3 times a week for 26 days and measured 48 hrs post last dose by H and E staining based assay; format: toxicity, organism-based, Bile duct; settings: in vivo, 672 h, time 28 day
[12] = Hepatotoxicity in male NSG mouse xenografted with human RPMI-8226 cells assessed as eosinophilic degeneration at 3 mg/kg, ip administered 3 times a week for 26 days and measured 48 hrs post last dose by H and E staining based assay; format: toxicity, organism-based; settings: in vivo, 672 h, time 28 day
[13] = Hepatotoxicity in female NSG mouse xenografted with human RPMI-8226 cells assessed as foci of bile ductular/oval cell proliferation at 3 mg/kg, ip administered 3 times a week for 26 days and measured 48 hrs post last dose by H and E staining based assay; format: toxicity, organism-based, Bile duct; settings: in vivo, 672 h, time 28 day
[14] = Hepatotoxicity in male NSG mouse xenografted with human RPMI-8226 cells assessed as serum AST level at 3 mg/kg, ip administered 3 times a week for 26 days and measured 48 hrs post last dose (reference value: 76 to 78 IU/L); format: toxicity, organism-based; settings: in vivo, 672 h, time 28 day
[15] = system: HCT-116; test: Induction of apoptosis in human HCT-116 cells assessed as early apoptotic cells at 1 uM incubated for 72 hrs by APC-Annexin-V/7-AAD staining based flow cytometry (reference value: 1.16%); format: functional
[16] = Metabolic stability in Beagle dog liver microsomes assessed as compound remaining incubated for 45 mins in presence of NADPH by LC-MS/MS analysis; format: ADME, Canis lupus familiaris, Microsome; settings: 0.75 h
[17] = Toxicity in NSG mouse xenografted with human MIA PaCa-2 cells assessed as weight loss at 3 mg/kg, ip administered 3 times a week for 26 days and measured daily; format: organism-based; settings: in vivo, time 26 day
[18] = Volume of distribution in Sprague-Dawley rat at 3 mg/kg, iv measured for 24 hrs by LC-MS/MS analysis; format: ADME, organism-based; settings: in vivo
[19] = Toxicity in NSG mouse xenografted with human MIA PaCa-2 cells assessed as appearance of skin lesions at 3 mg/kg, ip administered 3 times a week for 26 days and measured daily; format: organism-based; settings: in vivo, time 26 day
[20] = Metabolic stability in Sprague-Dawley rat liver microsomes assessed as compound remaining incubated for 45 mins in presence of NADPH by LC-MS/MS analysis; format: ADME, Microsome; settings: 0.75 h
[21] = Hepatotoxicity in female NSG mouse xenografted with human RPMI-8226 cells assessed as prominent nucleoli at 3 mg/kg, ip administered 3 times a week for 26 days and measured 48 hrs post last dose by H and E staining based assay; format: toxicity, organism-based; settings: in vivo, 672 h, time 28 day
[22] = system: HCT-116; test: Induction of apoptosis in human HCT-116 cells assessed as late apoptotic cells at 1 uM incubated for 72 hrs in presence of geranylgeraniol by APC-Annexin-V/7-AAD staining based flow cytometry (reference value: 0%); format: functional
[23] = Half life in Sprague-Dawley rat at 3 mg/kg, iv measured for 24 hrs by LC-MS/MS analysis; format: ADME, organism-based; settings: in vivo
[24] = system: MIA PaCa-2; test: Induction of apoptosis in human MIA PaCa-2 cells assessed as late apoptotic cells at 1 uM incubated for 72 hrs by APC-Annexin-V/7-AAD staining based flow cytometry (reference value: 0.29%); format: functional
[25] = Metabolic stability in Beagle dog liver microsomes assessed as compound remaining incubated for 45 mins in absence of NADPH by LC-MS/MS analysis; format: ADME, Canis lupus familiaris, Microsome; settings: 0.75 h
[26] = system: KMS-12-PE; test: Antiproliferative activity against human KMS-12-PE cells harboring wild type KRAS at 0.1 to 10000 nM incubated for 72 hrs by MTS assay; format: functional, cell-based; settings: dose 0.1-10000 nM
[27] = Hepatotoxicity in female NSG mouse xenografted with human RPMI-8226 cells assessed as single-cell necrosis at 3 mg/kg, ip administered 3 times a week for 26 days and measured 48 hrs post last dose by H and E staining based assay; format: toxicity, organism-based; settings: in vivo, 672 h, time 28 day
[28] = target: T1, Ras-related protein Rap-1A (Homo sapiens) (UniProt P62834); test: Inhibition of RAP-1A prenylation in human HCT-116 cells incubated for 48 hrs by Western blot analysis; format: cell-based; settings: dose 10-1000 nM
T1 sequence (whole entry): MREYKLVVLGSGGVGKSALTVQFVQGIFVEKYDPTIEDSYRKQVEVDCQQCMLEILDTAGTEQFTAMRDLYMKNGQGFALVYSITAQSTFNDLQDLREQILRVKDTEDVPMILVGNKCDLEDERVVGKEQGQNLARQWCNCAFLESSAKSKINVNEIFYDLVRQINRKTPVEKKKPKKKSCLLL

[29] = Plasma clearance in Sprague-Dawley rat at 3 mg/kg, iv measured for 24 hrs by LC-MS/MS analysis; format: ADME, organism-based
[30] = target: Cytochrome P450 2D6 (Homo sapiens, UniProt P10635); test: Inhibition of CYP2D6 (unknown origin); format: ADME
Sequence of Cytochrome P450 2D6 (P10635 whole entry): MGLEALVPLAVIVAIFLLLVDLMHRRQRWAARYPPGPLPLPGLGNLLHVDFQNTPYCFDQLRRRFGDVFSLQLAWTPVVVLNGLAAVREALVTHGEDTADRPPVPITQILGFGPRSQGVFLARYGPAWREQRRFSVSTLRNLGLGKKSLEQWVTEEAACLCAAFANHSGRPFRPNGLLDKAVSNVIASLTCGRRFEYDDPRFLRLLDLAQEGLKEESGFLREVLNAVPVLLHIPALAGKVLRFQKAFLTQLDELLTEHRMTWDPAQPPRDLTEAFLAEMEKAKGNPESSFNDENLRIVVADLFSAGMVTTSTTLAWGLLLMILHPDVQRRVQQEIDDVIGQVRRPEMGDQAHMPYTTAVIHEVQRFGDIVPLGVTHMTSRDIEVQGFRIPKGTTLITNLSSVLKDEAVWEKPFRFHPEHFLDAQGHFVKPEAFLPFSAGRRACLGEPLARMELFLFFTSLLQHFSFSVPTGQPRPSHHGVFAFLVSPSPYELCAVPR

[31] = Metabolic stability in human liver microsomes assessed as compound remaining incubated for 45 mins in absence of NADPH by LC-MS/MS analysis; format: ADME, Microsome; settings: 0.75 h
[32] = species: Mus musculus; test: Cytotoxicity against KPC mouse pancreatic cancer organoid ccmT4 at 1 uM incubated for 72 hrs by CellTiter-Glo luminescence based analysis; format: functional, tissue-based
[33] = Toxicity in NSG mouse xenografted with human MIA PaCa-2 cells assessed as reduction in mobility at 3 mg/kg, ip administered 3 times a week for 26 days and measured daily; format: organism-based; settings: in vivo, time 26 day

Stability [6]: 103%
pEC50 [7]: 6.10
Stability [16]: 87.7%
Vd [18]: 0.055 L/kg
Stability [20]: 89.7%
half-life [23]: 3.84 h
Stability [25]: 81.7%
inhibition [28]: Dose-Dependent Effect
clearance [29]: 0.2 mL/min/kg
pIC50 [30]: < 4.40
Stability [31]: 100%
Compound: Cn1ncc2c(NC(P(=O)(O)O)P(=O)(O)O)nc(-c3cccc(C(=O)Nc4ccc(C(F)(F)F)cc4)c3)nc21
inhibition at 72 h, 10 µM [1]: 0%
Activity [2]: 18%
inhibition at 72 h, 0.36 µM [3]: 0%
Activity [4]: 56.6%
Activity [5]: 13.4%
Activity [8]: Toxic
Activity [9]: Non-Toxic
Activity [10]: Non-Toxic
Activity [11]: Non-Toxic
Activity [12]: Non-Toxic
Activity [13]: Non-Toxic
Activity [14]: 96 IU/L
Activity [15]: 20.7%
Activity [17]: Non-Toxic
Activity [19]: Non-Toxic
Activity [21]: Non-Toxic
Activity [22]: 2.17%
Activity [24]: 41%
Activity [26]: Active
Activity [27]: Non-Toxic
Activity [32]: Active
Activity [33]: Non-Toxic
